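96-well plates; 48 h exposure; 5 concentrations. Endpoints by linear interpolation between flanking doses. Not reached: highest tested concentration assigned. GI50: concentration for 50% inhibition of growth. Definition used: TGI = concentration required for complete inhibition of growth.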
Key:
Experiment in all cases: growth of human tumour cells (NCI), 48 h
HOP-62 NSCLC = test system: HOP-62 NSCLC
HCC-2998 colon = test system: HCC-2998 colon
MALME-3M melanoma = test system: MALME-3M melanoma
OVCAR-5 ovarian = test system: OVCAR-5 ovarian
EKVX NSCLC = test system: EKVX NSCLC
NCI-H522 lung = test system: NCI-H522 lung
SR leukemia = test system: SR leukemia
MCF7 breast = test system: MCF7 breast
MDA-MB-435 = test system: MDA-MB-435
MDA-MB-231 breast = test system: MDA-MB-231 breast

SMILES	TGI (HOP-62 NSCLC) [µM]	TGI (HCC-2998 colon) [µM]	TGI (MALME-3M melanoma) [µM]	TGI (OVCAR-5 ovarian) [µM]	TGI (EKVX NSCLC) [µM]	TGI (NCI-H522 lung) [µM]	TGI (SR leukemia) [µM]	GI50 (HOP-62 NSCLC) [µM]	GI50 (MCF7 breast) [µM]	TGI (MCF7 breast) [µM]	GI50 (NCI-H522 lung) [µM]	GI50 (HCC-2998 colon) [µM]	GI50 (MDA-MB-435) [µM]	TGI (MDA-MB-435) [µM]	GI50 (MALME-3M melanoma) [µM]	GI50 (OVCAR-5 ovarian) [µM]	GI50 (EKVX NSCLC) [µM]	GI50 (MDA-MB-231 breast) [µM]	TGI (MDA-MB-231 breast) [µM]	GI50 (SR leukemia) [µM]
N=CCCN(CCC=N)c1ccc(/C=C2\CN(NC(=O)c3ccc(Cl)cc3)C(c3ccccc3)=N2)cc1	> 100	> 100	> 100	> 100	> 100	–	–	–	–	–	–	–	–	–	–	–	–	–	–	–
C[C@@H](C1CCC2C3C(=CC(=O)[C@@]21C)[C@H](C)[C@]1(CCC(=O)O1)C1OC31)[C@H]1C[C@]2(C)O[C@@](C)(O1)OC2(C)C (some centres undefined)	–	–	–	–	> 100	> 100	–	–	–	–	–	–	–	–	–	–	–	–	–	–
N#CNC(N)=NCCO	> 100	> 100	> 100	> 100	> 100	> 100	86.2	–	–	–	–	–	–	–	–	–	–	–	–	–
O=C(c1ccccc1)C(c1ccccc1)C1(O)C(=O)Nc2ccccc21 (centres undefined)	> 100	> 100	> 100	> 100	> 100	> 100	–	–	–	–	–	–	–	–	–	–	–	–	–	–
Cc1ccc(NC(=O)CC/C(CC(=O)C(C)(C)C)=N/NC(=O)C(N)=O)cc1C	> 100	> 100	> 100	> 100	> 100	> 100	> 100	–	–	–	–	–	–	–	–	–	–	–	–	–
COc1cc2c(c(OC)c1OC)C(=O)CC(c1cccc(NC(=O)c3ccc(Br)cc3)c1)O2 (centres undefined)	> 100	> 100	7.39	> 100	> 100	6.43	–	2.89	1.9	49.3	1.49	7.49	1.46	4.46	1.47	> 100	2.5	–	–	–
Cc1c(C(=O)CC(=O)C(=O)Nc2c(C(C)C)cccc2C(C)C)[n+](=O)c2ccccc2n1[O-]	59.3	16.6	18.8	35.6	29	5.83	–	–	–	–	–	–	–	–	–	–	–	–	–	–
Clc1ccccc1C(n1ncc2ccccc21)n1ncc2ccccc21	> 100	> 100	> 100	> 100	–	> 100	> 100	–	–	–	–	–	–	–	–	–	–	–	–	–
O=C1c2cccc3cc([N+](=O)[O-])cc(c23)C(=O)N1NC1=NCCN1	> 100	> 100	> 100	> 100	> 100	> 100	> 100	–	–	–	–	–	–	–	–	–	–	–	–	–
Cc1nc2ccccc2c(=O)n1/N=C(\N=Nc1cc(Cl)ccc1Cl)c1cccc(-c2ccco2)c1	> 100	> 100	> 100	> 100	> 100	–	–	–	–	–	–	–	–	–	–	–	–	–	–	–
CC(C)(C)N/N=C(\Cc1occc(=O)c1O)C(=O)Nc1ccc([N+](=O)[O-])cc1[N+](=O)[O-]	> 100	–	> 100	> 100	> 100	> 100	> 100	–	–	–	–	–	–	–	–	–	–	–	–	–
COc1cc(=O)oc(/C=C/C=O)c1C	34.9	32.2	39.4	> 100	94.6	35.3	7.6	–	–	–	–	–	–	–	–	–	–	–	–	–
O=C1c2ccccc2C(=O)C2C1C1C(=O)c3ccccc3C(=O)C21 (centres undefined)	> 100	> 100	> 100	> 100	> 100	> 100	–	–	–	–	–	–	–	–	–	–	–	–	–	–
O=S(=O)(Nc1cc(Br)c(O)c2ccccc12)c1ccc(F)cc1	18.5	33.4	3.84	–	7.52	83.4	34.3	3.58	–	–	5.23	18.4	1.82	3.3	2.03	–	2.64	2.1	5.5	4.24
O=[N+]([O-])c1cc([N+](=O)[O-])c(Cl)c(Cl)c1Cl	3.05	8.32	3.77	–	10.5	0.605	5.86	1.67	–	–	0.23	2.84	1.72	3.33	1.7	–	2.74	1.71	3.24	0.639
NC(N)=NS(=O)(=O)c1ccc(Nc2c3ccccc3nc3c(C(=O)N4CCN(CCO)CC4)cccc23)cc1	> 100	> 100	> 100	> 100	> 100	> 100	> 100	–	–	–	–	–	–	–	–	–	–	–	–	–
COC(=O)[C@H]1[C@H]2C[C@@H]3c4[nH]c5cc(OC)ccc5c4CCN3C[C@H]2C[C@@H](OC(=O)c2cc(OC)c(OC)c(OC)c2)[C@@H]1OC	28.1	47.1	34.2	> 100	–	34	34	–	–	–	–	–	–	–	–	–	–	–	–	–
O=C(CC(=O)c1ccc([N+](=O)[O-])cc1)C(=O)Nc1nccs1	> 100	> 100	> 100	> 100	> 100	> 100	> 100	–	–	–	–	–	–	–	–	–	–	–	–	–
CC(C)N(C(=O)C12C3C4C5C3C1(C(=O)N(C(C)C)C(C)C)C5(C#N)C42)C(C)C (centres undefined)	> 100	> 100	> 100	> 100	> 100	> 100	66.4	–	–	–	–	–	–	–	–	–	–	–	–	–

SMILES	TGI (HOP-62 NSCLC) [µM]	TGI (HCC-2998 colon) [µM]	TGI (MALME-3M melanoma) [µM]	TGI (OVCAR-5 ovarian) [µM]	TGI (EKVX NSCLC) [µM]	TGI (NCI-H522 lung) [µM]	TGI (SR leukemia) [µM]	GI50 (HOP-62 NSCLC) [µM]	GI50 (MCF7 breast) [µM]	TGI (MCF7 breast) [µM]	GI50 (NCI-H522 lung) [µM]	GI50 (HCC-2998 colon) [µM]	GI50 (MDA-MB-435) [µM]	TGI (MDA-MB-435) [µM]	GI50 (MALME-3M melanoma) [µM]	GI50 (OVCAR-5 ovarian) [µM]	GI50 (EKVX NSCLC) [µM]	GI50 (MDA-MB-231 breast) [µM]	TGI (MDA-MB-231 breast) [µM]	GI50 (SR leukemia) [µM]
[N-]=[N+]=Nc1ccc(CCN2CCN(c3cccc(C(F)(F)F)c3)CC2)cc1I	–	–	> 100	> 100	> 100	> 100	> 100	–	–	–	–	–	–	–	–	–	–	–	–	–
CCCN(CCCN)/[N+]([O-])=N\O	> 100	> 100	> 100	> 100	0.921	> 100	> 100	–	–	–	–	–	–	–	–	–	–	–	–	–
Cc1cc(N2CCN(C)CC2)nc(NCc2cc(Nc3ccnc4cc(Cl)ccc34)ccc2F)n1	3.83	4.85	3.89	–	> 100	3.88	4.89	1.63	0.334	2.75	1.92	1.79	1.76	3.9	2.08	–	2.5	–	–	1.94
CN1C(OCc2ccccc2)c2c(ccc3c2OCO3)C2C=Cc3cc4c(cc3C21)OCO4 (centres undefined)	2.96	2.99	2.52	2.86	2.98	2.16	–	–	–	–	–	–	–	–	–	–	–	–	–	–
N#CCCN(CCC#N)C(=O)c1cccc(C(=O)N(CCC#N)CCC#N)c1	> 100	> 100	> 100	> 100	> 63.9	> 100	> 68.4	–	–	–	–	–	–	–	–	–	–	–	–	–
CCC1=C(C)/C(=C/c2[nH]c(C(Br)Br)c(CC)c2C)N=C1C(Br)Br	> 100	52.9	76.4	> 100	> 100	38.1	32.6	–	–	–	–	–	–	–	–	–	–	–	–	–
CC1(C)OC(=O)[C@@](C)([C@H](O)c2ccccc2)O1	> 100	> 100	> 100	–	> 100	> 100	> 100	–	–	–	–	–	–	–	–	–	–	–	–	–
[C-]#[O+].[Cl][Sn]([Cl])[Cl].[Cl][Sn]([Cl])[Cl].[Pt].c1ccc([PH+](c2ccccc2)c2ccccc2)cc1.c1ccc([PH+](c2ccccc2)c2ccccc2)cc1	–	> 100	> 100	> 100	> 100	56.7	> 100	–	–	–	23.3	60.7	–	–	60	88	28	–	–	37.7
O=C(O)C1CCc2nnc(-c3ccccc3)n21 (centres undefined)	> 100	> 100	> 100	–	> 100	> 100	> 100	–	–	–	–	–	–	–	–	–	–	–	–	–
COc1c(C2=NC(C(C)C)CO2)ccc2ccccc12 (centres undefined)	> 100	> 100	> 100	> 100	> 100	99.8	–	–	–	–	–	–	–	–	–	–	–	–	–	–
CCOC(=O)c1cc(/C=C/C(C)=C/C(=O)OC)oc1-c1ccccc1	–	> 100	> 100	> 100	> 100	> 100	–	–	–	–	–	–	–	–	–	–	–	–	–	–
CN(C)c1ccc2c(c1)CN1C(=O)c3ccccc3C1=N2	–	–	> 100	> 100	–	> 100	> 100	–	–	–	36.6	–	–	–	> 100	> 100	–	–	–	> 100
Nc1ncnc2c1ncn2C1OC(CSC(F)(F)F)C(O)C1O (centres undefined)	> 100	> 100	> 100	> 100	> 100	> 100	–	–	–	–	–	–	–	–	–	–	–	–	–	–
CC1(C)C(c2ccccc2)C12CCC1(C2=O)C(c2ccccc2)C1(C)C (centres undefined)	60.5	34.4	72.5	81.8	69.3	30.5	–	–	–	–	–	–	–	–	–	–	–	–	–	–
O=S1CSCS1 (centres undefined)	> 100	> 100	> 100	> 100	> 100	> 100	> 100	–	–	–	–	–	–	–	–	–	–	–	–	–
Cc1cc(=O)n(-c2ccccc2)c(=O)o1	> 100	> 100	> 100	> 100	> 100	> 100	> 100	–	–	–	–	–	–	–	–	–	–	–	–	–
CC1(C)CCC[C@@]2(C)C1C[C@H](O)[C@@]1(C)O[C@@](C)([C@H](O)CO)CCC21 (some centres undefined)	> 100	> 100	> 100	> 100	> 100	89.8	–	–	–	–	–	–	–	–	–	–	–	–	–	–
CCOC(=O)C1=C(C)NC2SC(=O)/C(=C\c3ccccc3Cl)N2C1c1ccccc1 (centres undefined)	> 100	> 100	–	> 100	> 100	> 100	–	> 100	> 100	> 100	> 100	> 100	> 100	> 100	–	> 100	> 100	> 100	> 100	–

Source: PubChem BioAssay (NCI)
